≈ marks a conversion by molar mass, not a printed value.
Settings: buffer; pH 7.4; 200.0 µM

SMILES | solubility kinetic
CC(NC(=O)CCN1C(=O)c2ccccc2C1=O)c1ccccc1 (centres undefined) | > 48.4 µg/mL
Cc1ccc(C)c(OCC(=O)Nc2ccncc2)c1 | 37 µg/mL (≈ 144 µM)
COCCCn1c(SCC(=O)c2ccccc2)nc2ccccc2c1=O | 1.1 µg/mL (≈ 2.99 µM)
C/C(=N\OC(=O)Nc1ccc(Cl)cc1)c1ccc(F)c(F)c1 | 5.2 µg/mL (≈ 16 µM)
CC12CCC(C(=O)NC3CCCCC3)([C@H](Br)C1=O)C2(C)C (some centres undefined) | > 53.4 µg/mL
Cc1cc(Br)ccc1NC(=O)CNC(=O)CSc1nccn1C | > 59.6 µg/mL
CNCc1cc(Cl)cc(OC)c1OC(C)C.Cl | > 42 µg/mL
CC(C)[C@H](NC(=O)c1ccccc1F)C(=O)NC1CCCCC1 | > 48.1 µg/mL
Cc1onc(-c2ccccc2Cl)c1C(=O)Nc1cccc(S(=O)(=O)N2CCOCC2)c1 | 2 µg/mL (≈ 4.33 µM)
S=C(/N=c1/sccn1Cc1ccccc1)NC1CC1 | 5.4 µg/mL (≈ 18.7 µM)
Cc1ccc(C(=O)O)cc1NC(=O)C1CCN(S(=O)(=O)c2ccc3c(c2)OCCO3)CC1 | > 69.1 µg/mL
O=C(NCc1ccc2c(c1)OCO2)Nc1ccc(Cl)cc1 | 0.8 µg/mL (≈ 2.63 µM)
O=c1c2ccccc2nc2oc3ccccc3n12 | 1.1 µg/mL (≈ 4.66 µM)
CNC(=O)C(=O)Nc1cc2c3c(c1)CCC(=O)N3CCC2 | 19 µg/mL (≈ 66.1 µM)
COc1ccc(CNC(=O)COC(=O)c2ccc(S(=O)(=O)NCc3ccco3)cc2)cc1 | 8 µg/mL (≈ 17.4 µM)
C=CCn1c(O)c(C(C)=Nc2cccc(C(F)(F)F)c2)c(=O)[nH]c1=O | 4 µg/mL (≈ 11.3 µM)
CCCNC(=O)NS(=O)(=O)c1ccc(Cl)cc1 | > 41.5 µg/mL
CCCCN1C(=O)NC(NC(=O)C2CC2)(C(F)(F)F)C1=O (centres undefined) | > 46.1 µg/mL
N#C/C(=C\c1ccc(OCC(N)=O)cc1)S(=O)(=O)c1ccccc1 | 9.4 µg/mL (≈ 27.5 µM)
Nc1ncnc(Nc2c(F)cccc2F)n1 | > 33.5 µg/mL
O=S(=O)(Nc1ccc(N2CCCCC2)cc1)c1ccc(F)cc1 | 9.5 µg/mL (≈ 28.4 µM)
N#Cc1cn(Cc2ccccc2)c(=O)[nH]c1=O | > 34.1 µg/mL
CC(NC(=O)c1cccc(Cl)c1)C1CC2CCC1C2 (centres undefined) | < 0.6 µg/mL
CSc1nc(N(C)C)c2ccccc2n1 | 31.8 µg/mL (≈ 145 µM)

SMILES | solubility kinetic
Cc1ccc(NC(=O)CSc2ccc3c(c2)OCCO3)nc1 | > 47.5 µg/mL
Cc1ccc(Nc2c(-c3ccccc3O)nc3ncccn23)cc1 | 0.7 µg/mL (≈ 2.21 µM)
Cl.N=C(c1ccc([N+](=O)[O-])cc1)N1CCCCCC1 | > 42.6 µg/mL
OC1(C(F)(F)F)CC(c2ccc3ccccc3c2)=NO1 (centres undefined) | > 42.2 µg/mL
CC(C)(C)c1ccc(S(=O)(=O)N2CCN(C3CCCC3)CC2)cc1 | < 0.4 µg/mL
Cc1cc(C(=O)O)c(C)n1Cc1ccncc1 | 32.2 µg/mL (≈ 140 µM)
CCc1cc(=O)[nH]c(SC/C=C/c2ccccc2)n1 | 10.7 µg/mL (≈ 39.3 µM)
O=C(N1CCN(Cc2ccc3c(c2)OCO3)CC1)C(Cl)(Cl)Cl | 37.6 µg/mL (≈ 103 µM)
O=C(O)CCC(=O)N1CCc2c([nH]c3ccccc23)C1C(F)(F)F (centres undefined) | > 51 µg/mL
Cc1ccc(NS(=O)(=O)c2ccccc2[N+](=O)[O-])cc1S(=O)(=O)N1CCCCC1 | > 65.9 µg/mL
Cc1cccc(C(=O)N/C(=C\c2ccco2)C(=O)N2CCCC2)c1 | > 48.7 µg/mL
O=C(Nc1ccc(CN2CCOCC2)cc1)c1ccc(Cl)cc1 | 9.2 µg/mL (≈ 27.8 µM)
CN1CCN(C(=O)c2cc3cc(F)ccc3[nH]2)CC1 | > 39.2 µg/mL
Cc1ccc(C)c(N2CC(C(=O)Nc3cc(C)on3)CC2=O)c1 (centres undefined) | 40.3 µg/mL (≈ 129 µM)
COC(=O)c1scc(C)c1NC(=O)c1ccc(Cl)cc1 | 21.3 µg/mL (≈ 68.8 µM)
O=C(Nc1ccc(Cl)cc1)c1csc(Cc2ccccc2)n1 | 1.1 µg/mL (≈ 3.35 µM)
CC(NC(=O)c1ccncc1)c1ccc(Cl)cc1Cl (centres undefined) | > 44.3 µg/mL
CC(C)CC(=O)N1CCN(Cc2cccc(Cl)c2)CC1 | 24.8 µg/mL (≈ 84.1 µM)
O=C1CC(c2ccccc2)CN1 (centres undefined) | > 24.2 µg/mL
CC(C(O)c1ccc(O)cc1)N1CCC(Cc2ccccc2)CC1.O=C(O)C(O)C(O)C(=O)O (centres undefined) | > 71.3 µg/mL
COC(=O)[C@H](Cc1ccccc1)NC(=O)c1ccc2ccccc2n1 | 23.6 µg/mL (≈ 70.6 µM)
Cc1csc2c(N3CCC(C(=O)O)CC3)ncnc12 | 36.9 µg/mL (≈ 133 µM)
COC(=O)c1c(NC(C)=O)sc(C(=O)Nc2ccccc2F)c1C | < 0.4 µg/mL
Oc1ccc2ccccc2c1C=Nc1ccccc1Br | < 0.7 µg/mL

SMILES | solubility kinetic
CC1CCCC(C)N1C(=O)COC(=O)CNC(=O)c1ccccc1 (centres undefined) | > 49.9 µg/mL
CCC(Oc1ccccc1)C(=O)NC1CCSC1=O (centres undefined) | > 41.9 µg/mL
Cc1ccccc1C(=O)NC(C)C1CC2CCC1C2 (centres undefined) | 28.5 µg/mL (≈ 111 µM)
Nc1c(C(=O)c2ccco2)oc2ccccc12 | 25.8 µg/mL (≈ 114 µM)
COc1ccc(S(=O)(=O)NCc2ccccn2)c(C)c1C | 32.8 µg/mL (≈ 107 µM)
CCCCC(=O)Nc1cc(Cl)ccc1C(=O)O | > 38.4 µg/mL
CCCN(CCC)C(=O)CC(c1ccccc1)C1CCOC(C)(C)C1 (centres undefined) | 50.3 µg/mL (≈ 146 µM)
CCCS(=O)(=O)C/C(N)=N/OC(=O)c1ccccc1Cl | 38 µg/mL (≈ 119 µM)
C=CCn1c(SCC(=O)NCC)nc2sc3c(c2c1=O)CCC3 | 37.5 µg/mL (≈ 107 µM)
Cl.O=C(OCCN1CCCCC1)c1cccc(F)c1 | > 43.2 µg/mL
CC(C)S(=O)(=O)c1csc(NC(=O)Nc2ccc(Cl)cc2)c1 | 2.8 µg/mL (≈ 7.8 µM)
Cc1ccc(-c2noc(-c3ccno3)n2)cc1 | 2.4 µg/mL (≈ 10.6 µM)
COc1ccc(NC(=O)CCn2cc(C)c3ccccc32)cc1 | 4.4 µg/mL (≈ 14.3 µM)
CCN(c1cccc2ccccc12)S(=O)(=O)c1ccc(Cl)nc1 | 7.9 µg/mL (≈ 22.8 µM)
CCC(=O)c1ccc(OCC(=O)N2CCCC2)c(OC)c1 | > 43.7 µg/mL
O=C(Nc1ccon1)Nc1ccc(F)cc1F | > 35.9 µg/mL
O=C(NCc1cccnc1)Nc1ccc(Br)cc1Cl | 19.2 µg/mL (≈ 56.4 µM)
CC1(C)C(=O)Nc2ccccc2N1C(=O)COc1ccccc1C#N | 21.5 µg/mL (≈ 64.1 µM)
Cc1ccc(Cl)c2sc(NC(=O)C3=COCCO3)nc12 | 1.1 µg/mL (≈ 3.54 µM)
CCCCN(C(=O)C1CCCC1)C1CCS(=O)(=O)C1 (centres undefined) | > 43.1 µg/mL
COc1ccc(CNC(=O)c2[nH]c(C)c(C(C)=O)c2C)cc1 | > 45.1 µg/mL
O=C(CN1C(=O)c2ccccc2S1(=O)=O)N1CCCCC1 | > 46.3 µg/mL
O=C(Nc1ccc(F)cc1F)c1ccccc1NC(=O)C1CC=CCC1C(=O)O (centres undefined) | 59.7 µg/mL (≈ 149 µM)
CC(C)CC(N(C)C)C1(c2ccc(Cl)cc2)CCC1.Cl (centres undefined) | < 0.7 µg/mL

SMILES | solubility kinetic
CN=c1scc(-c2ccccc2F)n1/N=C/c1ccc(O)c(O)c1O | > 53.9 µg/mL
O=c1c2ccccc2nc(CNCC2CCCO2)n1-c1ccc(F)cc1 (centres undefined) | 44.9 µg/mL (≈ 127 µM)
CCn1c(=O)c2ccccc2n(Cc2ccc([N+](=O)[O-])cc2)c1=O | 5.6 µg/mL (≈ 17.2 µM)
COc1ccc(S(=O)(=O)N2CCN(C(=O)N(C)C)C2C)cc1 (centres undefined) | > 49.1 µg/mL
CNC(=S)Nc1ccc2nc(C)oc2c1 | > 33.2 µg/mL
Cc1ccc(C(=O)NCCNC(=O)c2ccco2)cc1C | 38.8 µg/mL (≈ 136 µM)
Cc1cc(C(=O)N2CCN(c3ncccc3C#N)CC2)no1 | 43.7 µg/mL (≈ 147 µM)
O=c1c2ccccc2ncn1Cc1ccc2c(c1)OCO2 | 15.1 µg/mL (≈ 53.9 µM)
O=C(Nc1cccc2ncccc12)c1cc(Br)ccc1Cl | 5 µg/mL (≈ 13.8 µM)
COc1ccc(Cl)cc1NC(=O)CN(C)C(=O)C1CC1 | > 44.5 µg/mL
Cc1ccc(N(CC(=O)N2CCc3ccccc3C2)S(C)(=O)=O)cc1 | > 53.8 µg/mL
COC(=O)C1=C(C)N(C)C(=O)NC1c1c(OC)ccc2ccccc12 (centres undefined) | 5.4 µg/mL (≈ 15.9 µM)
CCOc1ccc(NC(=O)c2c3c(nc4ccccc24)CCC3)cc1 | 1.4 µg/mL (≈ 4.21 µM)
COc1ccccc1Nc1nc(NCC(C)C)nc(N)c1[N+](=O)[O-] | 0.3 µg/mL (≈ 0.903 µM)
Cc1nnc(SCC(=O)Nc2ccc(OC(F)F)c(Cl)c2)n(N)c1=O | > 58.8 µg/mL
COc1cc(CNCc2ccncc2)cc(OC)c1OC.Cl | > 48.7 µg/mL
Cc1ccc2c(c1)N(CC(=O)N1CCOCC1)C(=O)C(C)O2 (centres undefined) | 39.6 µg/mL (≈ 130 µM)
Cc1ccc(NC(=O)CNC(=O)c2ccco2)c(Cl)c1 | > 43.9 µg/mL
Cc1c(F)cccc1NC(=O)c1ccc2c(c1)CCN2S(C)(=O)=O | 4.4 µg/mL (≈ 12.6 µM)
O=C(c1ccc(-n2cccc2)cc1)N1CCCCC1 | > 38.1 µg/mL
Cc1ccc(OCCNC(=O)C(C)SCC(=O)Nc2ccc(F)cc2)cc1 (centres undefined) | 35 µg/mL (≈ 89.6 µM)
Cc1ccc(S(=O)(=O)N(C)c2ccc(OC(=O)c3cccs3)cc2)cc1 | 1.2 µg/mL (≈ 3.1 µM)
Cn1c(=O)c2ccccc2n(CC(=O)NC2CCCCC2)c1=O | 8 µg/mL (≈ 25.4 µM)
COc1ccc(N2CC(C(=O)Nc3cc(C)ccn3)CC2=O)cc1 (centres undefined) | > 48.8 µg/mL

SMILES | solubility kinetic
Cc1nn(-c2ccccc2)c2nc(N)c(C(N)=O)cc12 | > 40.1 µg/mL
Cc1cc(C)nc(SCc2ccc(F)cc2)n1 | 10 µg/mL (≈ 40.3 µM)
O=C(CSCc1ccc(Cl)cc1)Nc1ccc(O)cc1C(=O)O | > 52.8 µg/mL
Fc1ccc(OCc2cc(-c3ccccc3)no2)cc1 | < 0.6 µg/mL
Cc1ccc(/C=C2\SC(=S)N(c3cccnc3)C2=O)cc1 | < 0.3 µg/mL
Cc1cc(C(C)(C)C)cc(C)c1CCNC(=O)c1ccc[n+]([O-])c1 | > 49 µg/mL
COc1ccccc1CNS(=O)(=O)c1ccc(Cl)s1 | > 47.7 µg/mL
CC(=O)N(Cc1ccccc1)c1c(N)nc(N)[nH]c1=O | > 41 µg/mL
CCOc1nc(Nc2ccccc2F)nc(OCC)n1 | 10.4 µg/mL (≈ 37.4 µM)
O=C(O)COc1ccc(S(=O)(=O)N2CCCC2)cc1 | > 42.8 µg/mL
COc1ccc(N(CC(=O)N2CCOCC2)S(C)(=O)=O)cc1Cl | > 54.4 µg/mL
OCCCNc1ncnc2oc(-c3ccccc3)c(-c3ccccc3)c12 | 17.5 µg/mL (≈ 50.7 µM)
Cc1ccc(NC(=S)NC(=O)c2cccs2)cc1F | 1.6 µg/mL (≈ 5.44 µM)
COC(=O)C1Cc2c([nH]c3ccccc23)C(C(C)C)N1 (centres undefined) | 33.4 µg/mL (≈ 123 µM)
Cc1cc(OC(=O)c2ccc(C(C)(C)C)cc2)c([N+](=O)[O-])c(=O)[nH]1 | 46.4 µg/mL (≈ 140 µM)
O=C(/C=C/Nc1ccc(F)cc1F)c1ccc(Br)cc1 | < 0.7 µg/mL
CC(C)c1nc(NCCO)c(C#N)c2c1CCCC2 | 9 µg/mL (≈ 34.7 µM)
CC1=C(C(=O)OC(C)C)C(c2ccc(C)o2)C(C(=O)OC(C)C)=C(C)N1 | 11.8 µg/mL (≈ 32.6 µM)
CC1CN(C(=O)COC(=O)c2ccccc2O)CC(C)O1 (centres undefined) | 40.1 µg/mL (≈ 137 µM)
C=CCSc1nc2c(c(=O)[nH]c(=O)n2C)n1Cc1ccccc1 | 3.9 µg/mL (≈ 11.9 µM)
CCOC(=O)c1c(O)c(Cl)c(C)[nH]c1=O | > 34.7 µg/mL
Cc1cccc(NC(=S)NCCc2ccc(F)cc2)c1C | 2.8 µg/mL (≈ 9.26 µM)
CC(=O)OC(C(=O)NC1CCCCC1)c1ccccc1Cl (centres undefined) | 39.1 µg/mL (≈ 126 µM)

From PubChem BioAssay AID1996
